Experiments:
Format in all cases: in vivo
Conditions in all cases: evaluated after 13 days
Avena fatua (AVEFA) [1] = assay: Pre-emergence herbicidal activity, Avena fatua; design: key: 5=total damage to plant; 0=no damage to plant
Summary of the method: (§1)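 Seeds sown in standard soil in pots, grown one day in a glasshouse (24/16 °C day/night, 14 h light, 65% humidity), then sprayed pre-emergence with compound in acetone/water (50:50) containing 0.5% Tween 20. Plants were scored after 13 days on a 0–5 scale (5 = total damage, 0 = none).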

[2] = tested on: Echinochloa crus-galli (ECHCG); assay: Post-emergence herbicidal activity, Echinochloa crus-galli; design: key: 5=total damage to plant; 0=no damage to plant
Summary of the method: (§2)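 Post-em, 8 d plants, pots; acetone:water 1:1 + 0.5% Tween 20 spray; 24/16 °C, 14 h photoperiod, 65% RH; 13 d readout, 0–5 phytotoxicity scale.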

[3] = tested on: Triticum aestivium (TRZAW); assay: Post-emergence herbicidal activity, Triticum aestivium; design: key: 5=total damage to plant; 0=no damage to plant
Summary of the method: as §2

[4] = tested on: Triticum aestivium (TRZAW); assay: Pre-emergence herbicidal activity, Triticum aestivium; design: key: 5=total damage to plant; 0=no damage to plant
Summary of the method: as §1

Setaria faberi (SETFA) [5] = assay: Pre-emergence herbicidal activity, Setaria faberi; design: key: 5=total damage to plant; 0=no damage to plant
Summary of the method: as §1

[6] = tested on: Echinochloa crus-galli (ECHCG); assay: Pre-emergence herbicidal activity, Echinochloa crus-galli
Summary of the method: as §1

[7] = tested on: Alopecurus myosuroides (ALOMY); assay: Pre-emergence herbicidal activity, Alopecurus myosuroides; design: key: 5=total damage to plant; 0=no damage to plant
Summary of the method: as §1

[8] = tested on: Alopecurus myosuroides (ALOMY); assay: Post-emergence herbicidal activity, Alopecurus myosuroides; design: key: 5=total damage to plant; 0=no damage to plant
Summary of the method: as §2

Setaria faberi (SETFA) [9] = assay: Post-emergence herbicidal activity, Setaria faberi; design: key: 5=total damage to plant; 0=no damage to plant
Summary of the method: as §2

Avena fatua (AVEFA) [10] = assay: Post-emergence herbicidal activity, Avena fatua
Summary of the method: as §2

Lolium perenne (LOLPE) [11] = assay: Pre-emergence herbicidal activity, Lolium perenne; design: key: 5=total damage to plant; 0=no damage to plant
Summary of the method: as §1

Lolium perenne (LOLPE) [12] = assay: Post-emergence herbicidal activity, Lolium perenne; design: key: 5=total damage to plant; 0=no damage to plant
Summary of the method: as §2

SMILES | Control of AVEFA after pre-emergence application (score 0-5) (Avena fatua (AVEFA) [1]; 1000 g/ha) | Control of ECHCG after post-emergence application (score 0-5) ([2]; 1000 g/ha) | Control of TRAZW after post-emergence application (score 0-5) ([3]; 1000 g/ha) | Control of TRAZW after pre-emergence application (score 0-5) ([4]; 1000 g/ha) | Control of SETFA after pre-emergence application (score 0-5) (Setaria faberi (SETFA) [5]; 1000 g/ha) | Control of ECHCG after pre-emergence application (score 0-5) ([6]; 1000 g/ha) | Control of ALOMY after pre-emergence application (score 0-5) ([7]; 1000 g/ha) | Control of ALOMY after post-emergence application (score 0-5) ([8]; 1000 g/ha) | Control of AVEFA after pre-emergence application (score 0-5) (Avena fatua (AVEFA) [1]; 250 g/ha) | Control of ECHCG after post-emergence application (score 0-5) ([2]; 250 g/ha) | Control of TRAZW after post-emergence application (score 0-5) ([3]; 250 g/ha) | Control of TRAZW after pre-emergence application (score 0-5) ([4]; 250 g/ha) | Control of SETFA after pre-emergence application (score 0-5) (Setaria faberi (SETFA) [5]; 250 g/ha) | Control of ECHCG after pre-emergence application (score 0-5) ([6]; 250 g/ha) | Control of ALOMY after pre-emergence application (score 0-5) ([7]; 250 g/ha) | Control of ALOMY after post-emergence application (score 0-5) ([8]; 250 g/ha) | Control of SETFA after post-emergence application (score 0-5) (Setaria faberi (SETFA) [9]; 250 g/ha) | Control of AVEFA after post-emergence application (score 0-5) (Avena fatua (AVEFA) [10]; 250 g/ha) | Control of LOLPE after pre-emergence application (score 0-5) (Lolium perenne (LOLPE) [11]; 250 g/ha) | Control of LOLPE after post-emergence application (score 0-5) (Lolium perenne (LOLPE) [12]; 250 g/ha) | other results
CSCCCOC(=O)Nc1ccc(-c2cncc(F)c2)nc1C(F)(F)F [Compound B83] | 2 | 5 | 1 | 0 | 5 | 4 | 0 | 0 |  |  |  |  |  |  |  |  |  |  |  |  | Control of SETFA after post-emergence application (score 0-5) (Setaria faberi (SETFA) [9]; 1000 g/ha): 5; Control of AVEFA after post-emergence application (score 0-5) (Avena fatua (AVEFA) [10]; 1000 g/ha): 4; Control of LOLPE after pre-emergence application (score 0-5) (Lolium perenne (LOLPE) [11]; 1000 g/ha): 2; Control of LOLPE after post-emergence application (score 0-5) (Lolium perenne (LOLPE) [12]; 1000 g/ha): 3
O=C(Nc1cc(Cl)cc(Cl)c1)Nc1ccc(-c2cncc(F)c2)nc1C(F)(F)F [Compound B88] |  |  |  |  |  |  |  |  | 0 | 1 | 0 | 0 | 2 | 1 | 0 | 0 | 1 | 1 | 2 | 0 | 
O=C(Nc1ccc(-c2cncc(F)c2)nc1C(F)(F)F)NC1CC1 [Compound B89] | 2 | 5 | 1 | 0 | 5 | 4 | 0 | 0 |  |  |  |  |  |  |  |  |  |  |  |  | Control of SETFA after post-emergence application (score 0-5) (Setaria faberi (SETFA) [9]; 1000 g/ha): 5; Control of AVEFA after post-emergence application (score 0-5) (Avena fatua (AVEFA) [10]; 1000 g/ha): 4; Control of LOLPE after pre-emergence application (score 0-5) (Lolium perenne (LOLPE) [11]; 1000 g/ha): 1; Control of LOLPE after post-emergence application (score 0-5) (Lolium perenne (LOLPE) [12]; 1000 g/ha): 2
CC(C)CNC(=O)Nc1ccc(-c2cncc(F)c2)nc1C(F)(F)F [Compound B90] |  |  |  |  |  |  |  |  | 1 | 4 | 0 | 0 | 5 | 4 | 0 | 0 | 5 | 3 | 1 | 2 | 
CC(C)(C)COC(=O)Nc1ccc(-c2cncc(F)c2)nc1C(F)(F)F [Compound B91] |  |  |  |  |  |  |  |  | 1 | 2 | 0 | 1 | 5 | 2 | 0 | 0 | 5 | 2 | 1 | 1 | 
Cc1cnc(CNC(=O)Nc2ccc(-c3cncc(F)c3)nc2C(F)(F)F)cn1 [Compound B92] |  |  |  |  |  |  |  |  | 1 | 3 | 0 | 0 | 5 | 1 | 0 | 0 | 4 | 3 | 0 | 1 | 
O=C(Nc1ccc(-c2cncc(F)c2)nc1C(F)(F)F)OC1CCOCC1 [Compound B93] |  |  |  |  |  |  |  |  | 2 | 5 | 0 | 0 | 5 | 4 | 0 | 0 | 5 | 4 | 1 | 3 | 
O=C(Nc1ccc(-c2cncc(F)c2)nc1C(F)(F)F)OCC1CC1 [Compound B94] | 3 | 5 | 0 | 0 | 5 | 4 | 1 | 0 |  |  |  |  |  |  |  |  |  |  |  |  | Control of SETFA after post-emergence application (score 0-5) (Setaria faberi (SETFA) [9]; 1000 g/ha): 5; Control of AVEFA after post-emergence application (score 0-5) (Avena fatua (AVEFA) [10]; 1000 g/ha): 3; Control of LOLPE after pre-emergence application (score 0-5) (Lolium perenne (LOLPE) [11]; 1000 g/ha): 2; Control of LOLPE after post-emergence application (score 0-5) (Lolium perenne (LOLPE) [12]; 1000 g/ha): 3
CCCCN(C)C(=O)Nc1ccc(-c2cncc(F)c2)nc1C(F)(F)F [Compound B95] |  |  |  |  |  |  |  |  | 0 | 2 | 0 | 0 | 4 | 1 | 0 | 0 | 5 | 3 | 1 | 1 | 
O=C(Nc1ccc(-c2cncc(F)c2)nc1C(F)(F)F)OCCC(F)(F)F [Compound B96] |  |  |  |  |  |  |  |  | 1 | 5 | 0 | 0 | 5 | 4 | 0 | 0 | 5 | 3 | 1 | 2 | 

Reference: patent US20210127673A1, “HERBICIDES” (SYNGENTA PARTICIPATIONS AG, priority 2016, published 2021)
